Assays:
factor VIII = assay: Anti-coagulation activity in human: VIII IC80 (factor VIII deficient plasma); assay type: biochemical; settings: 80% inhibition of factor VIII, contact-activated coagulation time
Experimental: (§1) Using the citric acid-containing plasma obtained from more than 6 normal persons, the D-HG sodium salt (Example 16), a FGAG sodium/potassium salt and a heparin sodium salt were each observed for the activity in respect of anticoagulation parameters (μg/ml).
VIII IC80 is a medicament concentration (μg/ml) for 80% inhibition of factor VIII which was calculated by measuring the activity to prolong the contact-activated coagulation time in the presence of a small amount of factor VIII using a factor VIII deficient plasma.

[1] = tested on: thrombin generation (inactivation of prothrombin in contact-activated plasma); assay: Anti-coagulation activity in human: IIaGI (thrombin generation); assay type: biochemical; settings: concentration required to double control's time for complete inactivation of prothrombin in contact-activated plasma
Text: as §1
IIaGI is the concentration (μg/ml) required to double the control's time for complete inactivation of prothrombin in the contact-activated plasma. This represents an activity to inhibit the thrombin generation.

factor X = assay: Anti-coagulation activity in human: XaIC50 (decomposition of synthetic substrate S2222); assay type: biochemical; settings: 50% inhibition of decomposition of synthetic substrate S2222
Text: as §1
XaIC50 is a medicament concentration (μg/ml) for 50% inhibition of decomposition of synthetic substrate S2222 with a factor X.

[2] = tested on: citric acid-containing plasma (activated partial thromboplastin time); assay: Anti-coagulation activity in human: x2APTT; assay type: biochemical; settings: concentration required to double APTT of control
Text: as §1

[3] = tested on: DIC model (thrombin injected into ICR mice); assay: Effect on DIC model (thrombin-induced fatality, survival rate); assay type: in vivo; settings: dose 1 mg/kg i.v. one minute before 800 U/kg thrombin; after 24 hours
Experimental: D-HG, FGAG and heparin were tested for an effect on DIC model in accordance with the method described in Japan J. Pharmacol, 35, 203-227 (1984).
Used as D-HG was the sodium salt obtained in Example 16, as FGAG the sodium/potassium salt obtained in Reference Example 1 and as a heparin a sodium salt having a potency of 185.6 U/mg.
A 800 U/kg of thrombin was intravenously injected into ICR mice (10 to 15 mice a group). […] The D-HG sodium salt, FGAG sodium/potassium salt or heparin sodium salt was intravenously injected one minute before the administration of thrombin.

thrombin = assay: Anti-coagulation activity in human: IIaIC90 (thrombin time); assay type: biochemical; settings: concentration for 90% inhibition of thrombin activity, from thrombin time; human plasma
Experimental: as §1
IIaIC90 is a concentration (μg/ml) for 90% inhibition of thrombin activity which was calculated by measuring the activity to prolong the thrombin time.

[4] = tested on: plasma-free washed platelet; assay: Inhibitory activity against thrombin-induced platelets aggregation; assay type: cell-based; settings: 3 μg/ml; 0.1 U/ml thrombin; rabbit washed platelets (control 86.6)
Experimental: The result of addition of the D-HG sodium salt obtained in Example 16 or a heparin sodium salt having a potency of 185.6 U/mg was evaluated by observing the aggregation of platelets (expressed in an increase of light transmittance) caused by the addition of 0.1 U/ml of thrombin to a suspension of plasma-free washed platelet obtained from a rabbit.

Substance: heparin [Heparin sodium salt]
- VIII IC80 (factor VIII): 0.79 µg/mL
- IIaGI [1]: 1.2 µg/mL
- XaIC50 (factor X): 3.4 µg/mL
- x2APTT [2]: 1.2 µg/mL
- Survival rate [3]: 80%
- IIaIC90 (thrombin): 0.3 µg/mL
- Light transmittance [4]: 80.2%

From patent publication US5519010A, “Sulfated polysaccharide, pharmaceutically acceptable salt thereof, process for preparing same and medicament containing same as effective component” (Taiho Pharmaceutical Co., Ltd., priority 1989, dated 1996)
